Data on seven compounds can be found in patent US7173151B2, “Cycloalkyl-substituted alkanoic acid derivatives, processes for their preparation and their use as pharmaceuticals” (Sanofi-AventisDeutschand GmbH, priority 2003, dated 2007).

Structures are written as SMILES.

In the assay the target is T1, GR-GAL4-humanPPARalpha-LBD (Homo sapiens, UniProt Q07869).
T1 construct: amino acids S167–Y468; expressed in transfected cells; host or cells: HEK cells, stably transfected (pcDNA3, CMV promoter)
T1 sequence (Q07869 167-468): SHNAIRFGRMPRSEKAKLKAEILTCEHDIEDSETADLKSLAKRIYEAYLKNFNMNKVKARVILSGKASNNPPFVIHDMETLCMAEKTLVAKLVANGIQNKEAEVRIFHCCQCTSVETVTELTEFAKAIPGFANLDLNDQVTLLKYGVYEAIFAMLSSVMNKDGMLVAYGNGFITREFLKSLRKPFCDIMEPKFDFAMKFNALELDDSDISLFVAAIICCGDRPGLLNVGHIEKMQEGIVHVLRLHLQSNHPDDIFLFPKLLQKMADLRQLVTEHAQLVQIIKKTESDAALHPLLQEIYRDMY
As to the kind of experiment: Cellular PPARalpha assay (luciferase reporter, stably transfected HEK cell line). It counts as cell-based. As for the experimental part: Determination of EC50 Values of PPAR Agonists in the Cellular PPARalpha Assay
The potency of substances which bind to human PPARalpha and activate in an agonistic manner is analyzed using a stably transfected HEK cell line (HEK=human embryo kidney) which is referred to here as PPARalpha reporter cell line. It contains two genetic elements, a luciferase reporter element (pdeltaM-GAL4-Luc-Zeo) and a PPARalpha fusion protein (GR-GAL4-humanPPARalpha-LBD) which mediates expression of the luciferase reporter element depending on a PPARalpha ligand. The stably and constitutively expressed fusion protein GR-GAL4-humanPPARalpha-LBD binds in the cell nucleus of the PPARalpha reporter cell line via the GAL4 protein portion to the GAL4 DNA binding motifs 5′-upstream of the luciferase reporter element which is integrated in the genome of the cell line. There is only little expression of the luciferase reporter gene without addition of a PPARalpha ligand if fatty acid-depleted fetal calf serum (cs-FCS) is used in the assay. PPARalpha ligands bind and activate the PPARalpha fusion protein and thereby bring about expression of the luciferase reporter gene. The luciferase which is formed can be detected by means of chemiluminescence via an appropriate substrate.
The PPARalpha reporter cell line was prepared in 2 stages. Firstly, the luciferase reporter element was constructed and stably transfected into HEK cells. For this purpose, five binding sites of the yeast transcription factor GAL4 (each 5′-CGGAGTACTGTCCTCCGAG-3′) (SEQ ID No. 1) were cloned in 5′-upstream of a 68 bp-long minimal MMTV promoter (Genbank Accession #V01175). The minimal MMTV promoter section contains a CCAAT box and a TATA element in order to enable efficient transcription by RNA polymerase II. The cloning and sequencing of the GAL4-MMTV construct took place in analogy to the description of Sambrook J. et. al. (Molecular cloning, Cold Spring Harbor Laboratory Press, 1989). Then the complete Photinus pyralis gene (Genbank Accession #M15077) was cloned in 3′-downstream of the GAL4-MMTV element. After sequencing, the luceriferase reporter element consisting of five GAL4 binding sites, MMTV promoter and luciferase gene was recloned into a plasmid which confers zeocin resistance in order to obtain the plasmid pdeltaM-GAL4-Luc-Zeo. This vector was transfected into HEK cells in accordance with the statements in Ausubel, F. M. et al. (Current protocols in molecular biology, Vol. 1–3, John Wiley & Sons, Inc., 1995).
In a second step, the PPARalpha fusion protein (GR-GAL4-humanPPARalpha-LBD) was introduced into the stable cell clone described. For this purpose, initially the cDNA coding for the N-terminal 76 amino acids of the glucocorticoid receptor (Genbank Accession #P04150) was linked to the cDNA section coding for amino acids 1–147 of the yeast transcription factor GAL4 (Genbank Accession #P04386). The cDNA of the ligand-binding domain of the human PPARalpha receptor (amino acids S167–Y468; Genbank Accession #S74349) was cloned in at the 3′-end of this GR-GAL4 construct. The fusion construct prepared in this way (GR-GAL4-humanPPARalpha-LBD) was recloned into the plasmid pcDNA3 (from Invitrogen) in order to enable constitutive expression therein by the cytomegalovirus promoter. This plasmid was linearized with a restriction endonuclease and stably transfected into the previously described cell clone containing the luciferase reporter element. The finished PPARalpha reporter cell line which contains a luciferase reporter element and constitutively expresses the PPARalpha fusion protein (GR-GAL4-human PPARalpha-LBD) was isolated by selection with zeocin (0.5 mg/ml) and G418 (0.5 mg/ml).
The activity of PPARalpha agonists is determined in a 3-day assay which is described below: […]
`CCCCCCCN(CCO[C@@H]1CCC[C@H](CCC(CC)C(=O)O)C1)C(=O)NCCCC` (relative stereo) [Example 2, 4-{cis-3-[2-(3-butyl-1-heptylureido)ethoxy]cyclohexyl}-2-ethylbutyric acid] yielded an EC50 of 1 nM. In other words, the single-digit nanomolar range.

Regarding `CCCCNC(=O)N(CCO[C@@H]1CCC[C@H](CCC(C)(C)C(=O)O)C1)Cc1ccc(C)cc1` (relative stereo) [Example 10, 4-(cis-3-{2-[3-butyl-1-(4-methylbenzyl)ureido]ethoxy}cyclohexyl)-2,2-dimethylbutyric acid], a half-maximal effect (EC50) was put at 74 nM.

With `CCCCCCCN(CCO[C@@H]1CCC[C@H](CCC(CC)C(=O)O)C1)C(=O)NC1CCCCC1` (relative stereo) [Example 3, 4-{cis-3-[2-(3-cyclohexyl-1-heptylureido)ethoxy]cyclohexyl}-2-ethylbutyric acid], the EC50 worked out at 0.56 nM. This EC50 is about 130-fold lower than that of the compound before.

Take `CCC(CCC1CCCC(OCCN(Cc2ccc(C)cc2)C(=O)NC2CCCCC2)C1)C(=O)O` (racemic) [Example 1, 4-(cis-3-{2-[3-cyclohexyl-1-(4-methylbenzyl)ureido]ethoxy}cyclohexyl)-2-ethylbutyric acid]: the midpoint of the response, the EC50, lay at 1.1 nM.

The compound `CCCCCCCN(CCO[C@@H]1CCC[C@H](CCC(C)(C)C(=O)O)C1)C(=O)NC1CCCCC1` (racemic) [Example 11, 4-{cis-3-[2-(3-cyclohexyl-1-heptylureido)ethoxy]cyclohexyl}-2,2-dimethylbutyrate] displayed an EC50 of 28 nM.

Consider `CCCCCCCN(CCO[C@@H]1CCC[C@H](CCC(C(=O)O)C(C)C)C1)C(=O)NCCCC` (relative stereo) [Example 5, 2-(2-{cis-3-[2-(3-butyl-1-heptylureido)ethoxy]cyclohexyl}ethyl)-3-methylbutyric acid], for which the response was half-maximal at 0.38 nM (EC50).

With `CCCCCCCN(CCOC1CCCC(CCC(C)(C)C(=O)O)C1)C(=O)NCCCC` (racemic) [Example 9, 4-{cis-3-[2-(3-butyl-1-heptylureido)ethoxy]cyclohexyl)-2,2-dimethylbutyric acid], the EC50 is 8.8 nM. This EC50 lies about 23-fold higher than the previous one.

One may read the EC50 as the concentration needed to bring the measured effect to its halfway point.
